What was measured:
Assay type in all cases: in vivo, human
[1] = system: person diagnosed with moderate Ulcerative colitis; assay: Single-patient treatment examples (Examples 2-5): person diagnosed with moderate ulcerative colitis
From the text: A 70 kg person diagnosed with moderate Ulcerative colitis is prescribed a pharmaceutical oral composition comprising 1.2 g of olsalazine (mol. wt. 302.24), a mesalamine dimer, two tablets to be taken twice daily for a total of 4.8 g/day of the 5-ASA dimer (5-ASA mol. wt.=153.14). The patient takes two tablets of the pharmaceutical in the morning and two tablets in the evening such that about 4.8 g/day of 5-ASA is delivered. The Physician's Global Assessment (PGA) score improves in comparison to baseline and rectal bleeding reduces. A 72 kg person diagnosed with moderate Ulcerative colitis is prescribed a pharmaceutical composition comprising four 1.2 g mesalamine delayed-release tablets, to be taken once daily. The four tablets are taken in the morning so that 4.8 g/day of 5-ASA is delivered. The Physician's Global Assessment (PGA) score improves in comparison to baseline and rectal bleeding reduces. A 75 kg person diagnosed with moderate Ulcerative colitis is prescribed a pharmaceutical oral composition comprising two 1.2 g balsalazide delayed-release tablets, to be taken three times daily for a total of 7.2 g/day of balsalazide; this regimen is calculated to deliver about 3.1 g of 5-ASA. The Physician's Global Assessment (PGA) score improves in comparison to baseline and rectal bleeding reduces. A 71 kg person diagnosed with moderate Ulcerative colitis is prescribed a pharmaceutical composition comprising a rectal mesalamine foam. The foam is administered three times per day (morning, afternoon, and evening) such that 1 g of mesalamine is administered at each interval for a total of 3 g of mesalamine per day. The Physician's Global Assessment (PGA) score improves in comparison to baseline and rectal bleeding is reduced.

[2] = system: male patients with moderate ulcerative colitis; assay: Study 1: phase III, multi-center, randomized, double-blind, controlled clinical trial, overall improvement (treatment success) at week 6; settings: moderate disease
Description: (§1) Administration of mesalamine at 4.8 g/day via three daily doses consisting of two, 800 mg dosage tablets provides a clear efficacy benefit over 2.4 g/day of mesalamine given as three daily doses consisting of two, 400 mg dosage tablets and addresses an unmet medical need for men with moderate ulcerative colitis. […] Data from patients with mild to moderate Ulcerative colitis (UC) are combined and analyzed from two phase III, multi-center, randomized, double-blind, controlled clinical trials of identical design assessing the safety and clinical efficacy of the increased dosage of 5-ASA. The two clinical trials are referred to herein as “Study 1” and “Study 2.” The primary endpoint is the percentage of moderate UC patients achieving overall improvement (i.e., treatment success) from baseline at week 6. This is defined as: (1) complete response (remission); complete resolution of signs and symptoms (stool frequency, rectal bleeding, Patient Functional Assessment (PFA) and sigmoidoscopy score) and a Physician's Global Assessment (PGA) of 0; or (2) partial response; improvement from baseline in the PGA score and improvement in at least one clinical assessment (stool frequency, rectal bleeding, PFA or sigmoidoscopy score) and no worsening in any of the other clinical assessments. […]

[3] = system: male patients with moderate ulcerative colitis; assay: Bayesian analysis of success rate in men with moderate disease
Description: In addition, a Bayesian analysis is conducted to calculate the probability that treatment with the 4.8 g/day dose in men results in a higher success rate than treatment with the 2.4 g/day dose. This type of analysis considers data from any previous studies conducted using either of the two dose levels. Success rates from male patients with moderate disease at baseline from three previous mesalamine studies are used to estimate the prior distributions for the 2.4 g/day dose and the 4.8 g/day dose. Using these prior distributions and Bayes analyses, the “posterior distribution” is calculated for each dose level based on the data obtained from […].

[4] = system: male patients with moderate ulcerative colitis; assay: Study 2: phase III, multi-center, randomized, double-blind, controlled clinical trial, overall improvement (treatment success) at week 6; settings: moderate disease
Description: as §1

[5] = system: male patients with moderate ulcerative colitis; assay: Study 1 and Study 2 combined: subgroup analyses and safety
Description: Data from patients with mild to moderate Ulcerative colitis (UC) are combined and analyzed from two phase III, multi-center, randomized, double-blind, controlled clinical trials of identical design assessing the safety and clinical efficacy of the increased dosage of 5-ASA. The two clinical trials are referred to herein as “Study 1” and “Study 2.” Pre-specified subgroup analyses for fifty-four demographic and baseline characteristics are performed in patients with moderately active disease (PGA score=2) to assess consistency of primary endpoint. […] To further evaluate the robustness of the results in men with moderate disease, whisker plots (i.e., point estimate and 95% confidence interval for the difference between the 2.4 g/day group and the 4.8 g/day group) for various subgroups defined on the basis of baseline characteristics (e.g., disease severity, demographic parameters) are prepared. […] FIG. 1 (a) is a subgroup analysis of treatment outcome at week 6 for male patients with moderate disease for Study 1 and Study 2 combined; (b) is a subgroup analysis of treatment outcome at week 6 for female patients with moderate disease for Study 1 and Study 2 combined. FIG. 2 (a) is a subgroup analysis of treatment outcome at week 6 for male patients with moderate disease for Study 1 and Study 2 combined; (b) is a subgroup analysis of treatment outcome at week 6 for female patients with moderate disease for Study 1 and Study 2 combined. FIG. 3 (a) is a subgroup analysis of treatment outcome at week 6 for male patients with moderate disease for Study 1 and Study 2 combined; (b) is a subgroup analysis of treatment outcome at week 6 for female patients with moderate disease for Study 1 and Study 2 combined. […]

[6] = Example 3, four 1.2 g delayed-release tablets once daily, 4.8 g/day, 72 kg person
[7] = Example 4, oral, two 1.2 g delayed-release tablets three times daily, 7.2 g/day (about 3.1 g 5-ASA), 75 kg person

O=C(O)c1cc(N=Nc2ccc(O)c(C(=O)O)c2)ccc1O [olsalazine, 3,3′-dicarboxy-4,4′-dihydroxyazobenzene]
Physician's Global Assessment (PGA) score in comparison to baseline ([1]; Example 2, oral, two 1.2 g tablets twice daily, 4.8 g/day, 70 kg person): improves

Nc1ccc(O)c(C(=O)O)c1 [mesalamine, 5-amino-2-hydroxybenzoic acid]
Difference in Proportions (4.8 g/day vs 2.4 g/day) ([2]; Primary Analysis): 25.5%
Difference in Proportions (4.8 g/day vs 2.4 g/day) ([2]; Set-to-Failure analysis): 27.3%
Probability of a successful treatment outcome (Bayes analysis) ([3]; 2.4 g/day dose, 95% credible interval 35.7%, 58.9%): 47.2%
Probability of a successful treatment outcome (Bayes analysis) ([3]; 4.8 g/day dose, 95% credible interval 64.9%, 83.5%): 74.7%
Probability that 4.8 g/day dose results in a higher success rate than 2.4 g/day dose ([3]; Bayes analysis): 99.97%
Difference in Proportions (4.8 g/day vs 2.4 g/day) ([4]; Primary Analysis): 27.5%
Difference in Proportions (4.8 g/day vs 2.4 g/day) ([4]; Set-to-Failure analysis): 24.8%
Physician's Global Assessment (PGA) score in comparison to baseline [1, 6]: improves
Rectal bleeding [1, 6]: reduces
Safety profile of 4.8 g/day regimen versus 2.4 g/day regimen ([5]; 4.8 g/day (800 mg tablet) vs 2.4 g/day (400 mg tablet), oral delayed-release): comparable
Difference between 4.8 g/day group and 2.4 g/day group across pre-specified subgroups ([5]; males with moderate disease, combined population, 51 of 54 subgroups): consistently superior to the 2.4 g/day group
Observed differences in success rate between treatment groups (4.8 vs 2.4 g/day) ([5]; men with moderate disease, both studies): approximately 25%

O=C(O)CCNC(=O)c1ccc(/N=N/c2ccc(O)c(C(=O)O)c2)cc1 [balsalazide, (E)-5-[[4-[[(2-carboxyethyl)amino]carbonyl]phenyl]azo]-2-hydroxybenzoic acid]
Physician's Global Assessment (PGA) score in comparison to baseline [1, 7]: improves
Rectal bleeding [1, 7]: reduces

From patent US20100048519A1, “METHODS OF TREATMENT FOR ULCERATIVE COLITIS USING AMINOSALICYLATE” (priority 2006, published 2010)
